Assay results from PubChem BioAssay AID720623 (The Scripps Research Institute Molecular Screening Center, 2013).
Active and inactive are the calls of the source. The rule behind the calls is not given here.

System: methionyl-tRNA synthetase (Trypanosoma brucei brucei)
Test: inhibition of trypanosomal MetRS charging activity – biochemical, radioactivity, assay provider, counter-screen for T. brucei MetRS inhibitor project, late-stage follow-up (AID 720623)
Conditions: Recombinant T. brucei MetRS enzyme, [3H]methionine tRNA aminoacylation, filter scintillation, 120 min, stronger effect = higher value

| Structure (SMILES) | inhibition (at 10 µM) | inhibition (inhibition, at 1 µM) [%] |
| --- | --- | --- |
| O=C(Cn1cnc2ccccc21)Nc1cccc([N+](=O)[O-])c1 | 91.9% | 44.9 |
| CN(Cc1cc(Cl)cc(Cl)c1)[C@H]1C[C@H]2c3[nH]c4ccccc4c3CCN2C(=O)[C@H]1CO | 101% | 95.1 |
| O=C(Cn1cc(C(=O)C(=O)N2CCOCC2)c2ccccc21)Nc1cccc(C(F)(F)F)c1 | 100% | 87.5 |
| Clc1ccc(OCCSCc2nc3ccccc3[nH]2)cc1 | 44.8% (inactive) | -2.58 |
| O=C(NCc1nc2ccccc2[nH]1)C1=C[C@H](c2ccccc2)C[C@H](OCc2ccc(CO)cc2)O1 | 61.8% | 7.32 |
| O=C(NCc1nc2ccccc2[nH]1)C1=C[C@@H](C2CC2)C[C@@H](OCc2ccc(CO)cc2)O1 | 93.6% | 52.8 |
| O=C(NCc1nc2ccccc2[nH]1)C1=C[C@@H](c2ccc(Br)cc2)C[C@@H](OCCCCO)O1 | 99.9% | 84.2 |
| Cc1[nH]c2ccc(Br)cc2c(=O)c1CN1CCCCCC1 | 86.6% | 19.4 |
| O=C(CC(=O)Nc1cccc(Cl)c1)NN=Cc1ccccc1 | 81.1% | 28.2 |
| O=C(NNC(=O)c1ccc(-n2cncn2)c([N+](=O)[O-])c1)c1ccc(Cl)cc1 | 73% | 7.36 |
| O=C(CC=NOCc1ccc([N+](=O)[O-])cc1)Nc1ccc(Cl)cc1 | 86.5% | 28.6 |
| O=C(NNC(=O)c1cc(-c2ccc(Cl)c(Cl)c2)nc2ccccc12)Nc1ccccc1 | 85.5% | 59.7 |
| COc1ccc2[nH]c3nc(SCC(=O)Nc4ccc5c(c4)OCO5)nnc3c2c1 | 65.6% | 63.4 |
| COc1cccc(NC(=O)CSc2nnc3c(n2)[nH]c2ccc(C)cc23)c1 | 94.2% | 97.7 |
| CC(=O)c1c[nH]c(C(=O)NCc2cccc(C(F)(F)F)c2)c1 | 92.7% | 44.6 |
| CC(C)(C)[C@@H]1C=C(C(=O)NCc2nc3ccccc3[nH]2)O[C@H](OCc2ccc(CO)cc2)C1 | 84.8% | 30.8 |
| CCCCCCCCCC1NC(C(=O)O)Cc2c1[nH]c1ccccc21 (centres undefined) | 93.2% | 64.7 |
| CCO[C@H]1OC(C(=O)NCc2nc3ccccc3[nH]2)=C[C@@H](c2ccc(Br)cc2)[C@@H]1CCCO | 81.6% | 0.88 |
| CC(=O)c1ccc(N2CCN(C(=O)CCCn3c(=O)[nH]c4ccc(Br)cc4c3=O)CC2)cc1 | 97% | 68.1 |
| O=C(NCc1nc2ccccc2[nH]1)C1=C[C@@H](c2csc3ccccc23)C[C@@H](OCCCCO)O1 | 89.2% | 20.6 |
| O=C(NCc1nc2ccccc2[nH]1)C1=C[C@@H](c2ccc3c(c2)OCO3)C[C@@H](OCCCCO)O1 | 93.7% | 50.4 |
| O=C1[C@@H]2Cc3c([nH]c4ccccc34)C(c3cccc([N+](=O)[O-])c3)N2C(=O)CN1CCCO (some centres undefined) | 97.5% | 63.2 |
| COc1ccc(CNC(=O)CSc2nnc3c(n2)[nH]c2ccc(F)cc23)cc1 | 89.6% | 47.5 |
| CC(C)OCCCN1CC(=O)N2C(c3cccc([N+](=O)[O-])c3)c3[nH]c4ccccc4c3C[C@H]2C1=O (some centres undefined) | 93.1% | 50 |
| O=C(NCc1nc2ccccc2[nH]1)C1=C[C@H](c2ccc(Br)cc2)C[C@H](OCc2ccc(CO)cc2)O1 | 94.6% | 50.3 |
| CC(C)(C)[C@H]1C=C(C(=O)NCc2nc3ccccc3[nH]2)O[C@@H](OCc2ccc(CO)cc2)C1 | 83.8% | 21.6 |
| CCO[C@@H]1OC(C(=O)NCc2nc3ccccc3[nH]2)=C[C@H](c2ccc(Br)cc2)[C@H]1CCCO | 64% | 6.72 |
